Source: the NIST ThermoML archive (doi:10.1007/s10765-008-0410-4)

Assay: xn = mol fraction of the nth substance listed
Details: Liquid, Vibrating tube method

CCCCn1cc[n+](C)c1.F[B-](F)(F)F [1-butyl-3-methylimidazolium tetrafluoroborate] + CCO
Details | mass density [kg/m3]
298.15 K, 120 kPa, x1 = 0.9152 | 1199.7
298.15 K, 180 kPa, x1 = 0.7452 | 1171.71
298.15 K, 210 kPa, x1 = 0.5384 | 1124.67
298.15 K, 280 kPa, x1 = 1 | 1211.19
298.15 K, 340 kPa, x1 = 0.3147 | 1044.49
298.15 K, 390 kPa, x1 = 0.0701 | 875.91
298.15 K, 4960 kPa, x1 = 0.7452 | 1174.16
298.15 K, 5040 kPa, x1 = 0.5384 | 1127.45
298.15 K, 5140 kPa, x1 = 0.9152 | 1202.06
298.15 K, 5500 kPa, x1 = 0.0701 | 880.04
298.15 K, 5630 kPa, x1 = 0.3147 | 1048.05
298.15 K, 5640 kPa, x1 = 1 | 1213.63
298.15 K, 10030 kPa, x1 = 0.9152 | 1204.31
298.15 K, 10060 kPa, x1 = 0.7452 | 1176.71
298.15 K, 10260 kPa, x1 = 0.5384 | 1130.36
298.15 K, 10620 kPa, x1 = 1 | 1215.85
298.15 K, 10910 kPa, x1 = 0.3147 | 1051.47
298.15 K, 11370 kPa, x1 = 0.0701 | 884.58
298.15 K, 15130 kPa, x1 = 0.0701 | 887.37
298.15 K, 15210 kPa, x1 = 0.7452 | 1179.21
298.15 K, 15280 kPa, x1 = 0.3147 | 1054.2
298.15 K, 15320 kPa, x1 = 0.5384 | 1133.1
298.15 K, 15340 kPa, x1 = 1 | 1217.77
298.15 K, 15620 kPa, x1 = 0.9152 | 1206.82
298.15 K, 20090 kPa, x1 = 0.5384 | 1135.59
298.15 K, 20360 kPa, x1 = 0.7452 | 1181.64
298.15 K, 20480 kPa, x1 = 0.9152 | 1208.95
298.15 K, 20540 kPa, x1 = 0.3147 | 1057.36
298.15 K, 20640 kPa, x1 = 1 | 1220.29
298.15 K, 21070 kPa, x1 = 0.0701 | 891.6
298.15 K, 25270 kPa, x1 = 1 | 1222.18
298.15 K, 25410 kPa, x1 = 0.7452 | 1183.95
298.15 K, 25470 kPa, x1 = 0.3147 | 1060.21
298.15 K, 25570 kPa, x1 = 0.0701 | 894.66
298.15 K, 26070 kPa, x1 = 0.5384 | 1138.61
298.15 K, 26140 kPa, x1 = 0.9152 | 1211.36
298.15 K, 29870 kPa, x1 = 0.9152 | 1212.91
298.15 K, 30050 kPa, x1 = 1 | 1223.93
298.15 K, 30070 kPa, x1 = 0.5384 | 1140.56
298.15 K, 30090 kPa, x1 = 0.7452 | 1186.03
298.15 K, 30620 kPa, x1 = 0.0701 | 897.94
298.15 K, 31120 kPa, x1 = 0.3147 | 1063.34
298.15 K, 35410 kPa, x1 = 0.5384 | 1143.07
298.15 K, 35410 kPa, x1 = 1 | 1226.07
298.15 K, 35480 kPa, x1 = 0.7452 | 1188.36
298.15 K, 35740 kPa, x1 = 0.9152 | 1215.3
298.15 K, 35800 kPa, x1 = 0.3147 | 1065.82
298.15 K, 35860 kPa, x1 = 0.0701 | 901.17
298.15 K, 39340 kPa, x1 = 0.0701 | 903.23
298.15 K, 39610 kPa, x1 = 1 | 1227.81
298.15 K, 39770 kPa, x1 = 0.3147 | 1067.84
298.15 K, 39920 kPa, x1 = 0.7452 | 1190.22
298.15 K, 39980 kPa, x1 = 0.5384 | 1145.14
298.15 K, 39980 kPa, x1 = 0.9152 | 1216.97
323.15 K, 290 kPa, x1 = 0.0701 | 856.52
323.15 K, 340 kPa, x1 = 0.3147 | 1026.83
323.15 K, 420 kPa, x1 = 0.7452 | 1153.47
323.15 K, 510 kPa, x1 = 0.9152 | 1181.35
323.15 K, 730 kPa, x1 = 1 | 1192.89
323.15 K, 850 kPa, x1 = 0.5384 | 1106.94
323.15 K, 4870 kPa, x1 = 0.9152 | 1183.6
323.15 K, 4890 kPa, x1 = 0.5384 | 1109.43
323.15 K, 5010 kPa, x1 = 0.3147 | 1030.15
323.15 K, 5060 kPa, x1 = 0.7452 | 1156.05
323.15 K, 5410 kPa, x1 = 0.0701 | 861.09
323.15 K, 5640 kPa, x1 = 1 | 1195.3
323.15 K, 9860 kPa, x1 = 0.5384 | 1112.4
323.15 K, 10080 kPa, x1 = 0.9152 | 1186.23
323.15 K, 10110 kPa, x1 = 0.3147 | 1033.63
323.15 K, 10610 kPa, x1 = 1 | 1197.71
323.15 K, 10730 kPa, x1 = 0.0701 | 865.61
323.15 K, 10740 kPa, x1 = 0.7452 | 1159.11
323.15 K, 14870 kPa, x1 = 0.5384 | 1115.29
323.15 K, 15080 kPa, x1 = 0.7452 | 1161.39
323.15 K, 15210 kPa, x1 = 0.9152 | 1188.77
323.15 K, 15410 kPa, x1 = 0.3147 | 1037.07
323.15 K, 15430 kPa, x1 = 0.0701 | 869.4
323.15 K, 15440 kPa, x1 = 1 | 1200.01
323.15 K, 20160 kPa, x1 = 0.5384 | 1118.22
323.15 K, 20310 kPa, x1 = 0.7452 | 1164.06
323.15 K, 20330 kPa, x1 = 0.0701 | 873.16
323.15 K, 20460 kPa, x1 = 1 | 1202.37
323.15 K, 20470 kPa, x1 = 0.9152 | 1191.31
323.15 K, 20750 kPa, x1 = 0.3147 | 1040.38
323.15 K, 25010 kPa, x1 = 0.9152 | 1193.45
323.15 K, 25120 kPa, x1 = 0.7452 | 1166.45
323.15 K, 25360 kPa, x1 = 1 | 1204.64
323.15 K, 25380 kPa, x1 = 0.0701 | 876.83
323.15 K, 25840 kPa, x1 = 0.5384 | 1121.23
323.15 K, 26290 kPa, x1 = 0.3147 | 1043.62
323.15 K, 30070 kPa, x1 = 0.9152 | 1195.79
323.15 K, 30080 kPa, x1 = 0.7452 | 1168.84
323.15 K, 30260 kPa, x1 = 0.5384 | 1123.49
323.15 K, 30330 kPa, x1 = 0.0701 | 880.21
323.15 K, 30640 kPa, x1 = 0.3147 | 1046.04
323.15 K, 30740 kPa, x1 = 1 | 1207.09
323.15 K, 34740 kPa, x1 = 0.0701 | 883.06
323.15 K, 34960 kPa, x1 = 0.9152 | 1198
323.15 K, 35070 kPa, x1 = 0.7452 | 1171.16
323.15 K, 35260 kPa, x1 = 0.3147 | 1048.48
323.15 K, 35420 kPa, x1 = 0.5384 | 1126.01
323.15 K, 35650 kPa, x1 = 1 | 1209.29
323.15 K, 39850 kPa, x1 = 1 | 1211.14
323.15 K, 40000 kPa, x1 = 0.9152 | 1200.22
323.15 K, 40010 kPa, x1 = 0.0701 | 886.25
323.15 K, 40010 kPa, x1 = 0.7452 | 1173.4
323.15 K, 40020 kPa, x1 = 0.5384 | 1128.17
323.15 K, 40120 kPa, x1 = 0.3147 | 1050.91
348.15 K, 210 kPa, x1 = 1 | 1174.44
348.15 K, 230 kPa, x1 = 0.3147 | 1007.5
348.15 K, 380 kPa, x1 = 0.7452 | 1134.96
348.15 K, 450 kPa, x1 = 0.5384 | 1088.13
348.15 K, 460 kPa, x1 = 0.9152 | 1163.17
348.15 K, 520 kPa, x1 = 0.0701 | 835.75
348.15 K, 5010 kPa, x1 = 0.5384 | 1091.32
348.15 K, 5040 kPa, x1 = 0.9152 | 1165.81
348.15 K, 5340 kPa, x1 = 0.0701 | 840.67
348.15 K, 5360 kPa, x1 = 0.7452 | 1138.08
348.15 K, 5740 kPa, x1 = 0.3147 | 1011.89
348.15 K, 5960 kPa, x1 = 1 | 1177.75
348.15 K, 10060 kPa, x1 = 0.5384 | 1094.71
348.15 K, 10090 kPa, x1 = 0.7452 | 1140.95
348.15 K, 10480 kPa, x1 = 1 | 1180.3
348.15 K, 11210 kPa, x1 = 0.9152 | 1169.27
348.15 K, 11420 kPa, x1 = 0.3147 | 1016.16
348.15 K, 11710 kPa, x1 = 0.0701 | 846.75
348.15 K, 15080 kPa, x1 = 0.9152 | 1171.38
348.15 K, 15210 kPa, x1 = 0.5384 | 1098.01
348.15 K, 15420 kPa, x1 = 0.7452 | 1144.07
348.15 K, 15430 kPa, x1 = 1 | 1182.72
348.15 K, 15740 kPa, x1 = 0.3147 | 1019.22
348.15 K, 15840 kPa, x1 = 0.0701 | 850.45
348.15 K, 20060 kPa, x1 = 0.5384 | 1100.98
348.15 K, 20080 kPa, x1 = 0.7452 | 1146.71
348.15 K, 20550 kPa, x1 = 0.0701 | 854.43
